{"source": "patent US20180177749A1", "about": "“USE OF CYP EXPRESSION TO DIRECT THERAPEUTIC INTERVENTION IN CANCER” (REGENTS OF THE UNIVERSITY OF MINNESOTA, priority 2016, published 2018)", "tested_on": "T47D", "experiment": "Measurement of OCR and ECAR, T47D", "type": "cell-based, human", "settings": "20 and 40 μM", "protocol": "Cells were maintained in growth medium consisting of 10% FBS at 37° C. with 5% CO2 and seeded at 100,000 cells per well in XF24-well cell culture microplates (Seahorse Bioscience, North Billirica, Mass.). Concentrated stocks of HBB were prepared in DMSO. HBB was diluted to 10× working concentration in XF assay medium (a non-buffered medium including 2 mM L-glutamine but no sodium bicarbonate (buffering agent), glucose, or sodium pyruvate). Assays were performed in the XF Extracellular Flux Analyzer (Seahorse Bioscience that measures uptake and excretion of metabolic end products in real time). Oxygen consumption rate (OCR) and extracellular acidification rate (ECAR) were measured using an XF Assay Kit. OCR is reported in pmoles/minute and ECAR in mpH/minute. Before analysis, the cells were switched from culture medium to XF assay medium. After baseline measurements, 75 μl of HBB prepared in assay medium was injected into each well to reach final working concentrations. After addition of HBB, OCR and ECAR were measured at 18-minute intervals. There were 5 replicates was performed for each data point for MCF-7, MDA-MB-231, T47D and MDA-MB-435 cell lines. There were 6 replicates for the studies of the 3-18 and 4-14 cell lines.", "data": [{"smiles": "CCCCCCNC(=N)NC(=N)NCc1ccccc1", "note": "[HBB, N1-hexyl-N5-benzyl-biguanide]", "values": [{"measurement": "reduction of OCR and ECAR", "value": "significant vs. vehicle"}]}]}
